Key:
[1] = molecular target: GSK3β (Glycogen synthase kinase-3 beta) (Homo sapiens, UniProt P49841); experiment: Assay 6 GSK3β assay (ThermoFisher Z-Lyte FRET); assay type: biochemical; conditions: ATP Conc: 10 μM, geometric mean; read-out: Assay 6 (GSK3β FRET-Z-Lyte Cr) GMean IC50
In short: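 Z-Lyte FRET: 0.22-0.92 ng kinase with 2 μM Ser/Thr 09 peptide in HEPES pH 7.5, MgCl2, EGTA, 60 min at room temperature, then 60 min development. Compounds in 1% DMSO, 10-point 3-fold series from 10 μM; sigmoidal dose-response fit.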

[2] = molecular target: T1, PCSK9 (Homo sapiens, UniProt Q8NBP7, G670E/V474I); experiment: Assay 3 PCSK9 LDL-C uptake assay in HepG2 cells; assay type: cell-based; set-up: TEV site (C); His6 (C); host or cells: added to HepG2 (ATCC #HB-8065); conditions: 125 nM PCSK9, pHrodo Red-LDL, read-out: Assay 3 LDL uptake potency
Text: This assay measures for PCSK9 antagonist activity based on a test compound's capacity to restore LDL-C-uptake in HepG2 cells. The assay is based on exogenous PCSK9 and LDL-C complexed with a pH-sensitive dye. Outside the cells, at neutral pH, the pHrodo Red-LDL is dimly fluorescent but upon LDLR mediated endocytosis it fluoresces brightly. PCSK9 traffics the LDLR to intracellular degradation and reduces uptake of LDL-C. Inhibition of PCSK9 reduces LDLR degradation and the increased LDL-C uptake is quantified by fluorescence microscopy.
• Cell medium: MEM supplemented with 10% FBS, 1×NEAA and Sodium Pyruvate • Assay medium: OptiMem supplemented with penicillin/streptomycin • Cells: HepG2 (ATCC #HB-8065)
• 1. Cryopreserved HepG2 cells were thawed in assay medium and centrifuged for 5 min at 250 g. Supernatant was discarded and the cell pellet resuspended in cell medium and counted with a Nucleocounter. Cells were again centrifuged 5 min at 250 g and the pellet was resuspended to 500000 cells/mL in assay medium. • 2. 20 μL of above cell mix was dispensed into black μclear TC treated 384 well plates with Multidrop Combi and left at room temperature for 20 minutes. • 3. Plates were incubated at 37° C., 5% CO2 for 24 h
• 1. Test compounds were prepared in concentration response in DMSO with a half-log dilution factor in DMSO in Echo 384 LDV plates starting at 10 mM. • 2. 30 nL of above test compounds were dispensed with Echo 655 to cells for a top concentration of 10 μM • 3. 10 μL PCSK9 in assay medium was dispensed to cells with Multidrop Combi for 125 nM final concentration in the wells. • 4. Plates were incubated at 37° C., 5% CO2 for 24 h
• 1. 10 μL pHrodo Red-LDL in assay medium was dispensed to cells with Multidrop Combi for […] • 2. Plates were incubated at 37° C., 5% CO2 and imaged with the Incucyte S3 after 4 h and 24 h
Image data was processed using Incucyte 2021, a software to identify cells and red fluorescent intensity. Screener was used to further process data. Data was normalized as % effect of the signal between median values of the on-plate controls of DMSO and 100 nM Evolocumab according to the formula % effect=−100*(x−DMSO)/(Evolocumab−DMSO) where x equals the measured signal. Concentration response data of the normalized values were fitted using a four-parameter logistic fit.

[3] = molecular target: T1, PCSK9; experiment: biochemical
[4] = molecular target: T2, potassium ion channel hERG (Homo sapiens, UniProt Q12809); experiment: Assay 5 hERG assay (patch clamp, CHO cells over-expressing hERG); assay type: cell-based; conditions: SyncroPatch 384PE, room temperature, geometric mean, read-out: Assay 5 (hERG Hu CHO if EPh CR-Syncro) GMean IC50
T2 construct: expressed in transfected cells; host or cells: Chinese hamster ovary K1 (CHO)
In short: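 hERG currents recorded by automated patch clamp at room temperature in CHO-K1 cells, 6-point cumulative concentrations. SyncroPatch runs used KF-based internal (pH 7.2) and NMDG-containing external solution (pH 7.4), 0.33% DMSO; QPatchII runs used 2% or 0.4% DMSO. Only wells meeting seal-resistance and current-size criteria kept.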

T2 sequence (Q12809 whole entry): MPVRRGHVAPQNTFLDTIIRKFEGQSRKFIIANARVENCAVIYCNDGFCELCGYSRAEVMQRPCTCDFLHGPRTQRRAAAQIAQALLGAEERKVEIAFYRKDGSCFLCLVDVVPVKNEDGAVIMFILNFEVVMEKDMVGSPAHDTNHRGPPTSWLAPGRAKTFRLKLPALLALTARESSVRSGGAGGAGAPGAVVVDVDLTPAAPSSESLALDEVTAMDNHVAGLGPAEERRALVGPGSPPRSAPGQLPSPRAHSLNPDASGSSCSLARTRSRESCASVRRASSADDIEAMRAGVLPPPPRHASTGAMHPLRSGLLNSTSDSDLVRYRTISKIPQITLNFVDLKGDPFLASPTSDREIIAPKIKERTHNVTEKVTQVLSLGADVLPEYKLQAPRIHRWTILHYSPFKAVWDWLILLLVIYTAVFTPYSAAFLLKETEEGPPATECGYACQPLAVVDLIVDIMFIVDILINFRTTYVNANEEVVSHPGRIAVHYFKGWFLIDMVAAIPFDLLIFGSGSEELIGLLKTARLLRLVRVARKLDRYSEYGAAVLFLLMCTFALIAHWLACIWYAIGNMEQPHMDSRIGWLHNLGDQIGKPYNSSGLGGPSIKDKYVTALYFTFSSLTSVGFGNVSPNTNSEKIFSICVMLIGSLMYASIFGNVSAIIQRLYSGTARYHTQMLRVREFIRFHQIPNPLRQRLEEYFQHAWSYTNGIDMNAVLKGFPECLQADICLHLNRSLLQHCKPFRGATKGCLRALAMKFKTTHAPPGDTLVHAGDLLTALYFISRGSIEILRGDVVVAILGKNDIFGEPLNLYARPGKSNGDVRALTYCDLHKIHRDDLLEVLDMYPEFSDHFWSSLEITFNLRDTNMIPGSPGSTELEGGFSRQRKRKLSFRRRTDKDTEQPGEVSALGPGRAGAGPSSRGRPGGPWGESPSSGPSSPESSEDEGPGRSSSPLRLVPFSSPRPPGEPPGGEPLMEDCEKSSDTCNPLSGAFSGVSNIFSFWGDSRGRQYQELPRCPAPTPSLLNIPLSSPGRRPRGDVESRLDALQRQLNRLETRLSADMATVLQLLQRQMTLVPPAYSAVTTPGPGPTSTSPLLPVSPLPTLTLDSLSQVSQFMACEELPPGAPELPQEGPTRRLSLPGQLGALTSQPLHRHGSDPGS
Chain of GSK3β (Glycogen synthase kinase-3 beta) (P49841 whole entry): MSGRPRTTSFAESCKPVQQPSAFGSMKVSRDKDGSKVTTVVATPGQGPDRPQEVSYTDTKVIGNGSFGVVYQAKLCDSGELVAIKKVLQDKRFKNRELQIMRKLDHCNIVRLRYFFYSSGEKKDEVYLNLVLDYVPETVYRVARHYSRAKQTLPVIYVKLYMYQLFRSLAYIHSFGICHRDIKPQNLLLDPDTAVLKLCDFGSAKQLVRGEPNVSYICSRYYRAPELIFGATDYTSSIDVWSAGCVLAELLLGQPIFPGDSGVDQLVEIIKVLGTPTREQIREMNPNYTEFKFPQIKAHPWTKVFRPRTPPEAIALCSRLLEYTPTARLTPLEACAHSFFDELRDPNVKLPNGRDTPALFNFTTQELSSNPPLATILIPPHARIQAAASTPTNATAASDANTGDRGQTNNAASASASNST
T1 sequence (Q8NBP7 with tags, fused parts or gaps V474I/G670E): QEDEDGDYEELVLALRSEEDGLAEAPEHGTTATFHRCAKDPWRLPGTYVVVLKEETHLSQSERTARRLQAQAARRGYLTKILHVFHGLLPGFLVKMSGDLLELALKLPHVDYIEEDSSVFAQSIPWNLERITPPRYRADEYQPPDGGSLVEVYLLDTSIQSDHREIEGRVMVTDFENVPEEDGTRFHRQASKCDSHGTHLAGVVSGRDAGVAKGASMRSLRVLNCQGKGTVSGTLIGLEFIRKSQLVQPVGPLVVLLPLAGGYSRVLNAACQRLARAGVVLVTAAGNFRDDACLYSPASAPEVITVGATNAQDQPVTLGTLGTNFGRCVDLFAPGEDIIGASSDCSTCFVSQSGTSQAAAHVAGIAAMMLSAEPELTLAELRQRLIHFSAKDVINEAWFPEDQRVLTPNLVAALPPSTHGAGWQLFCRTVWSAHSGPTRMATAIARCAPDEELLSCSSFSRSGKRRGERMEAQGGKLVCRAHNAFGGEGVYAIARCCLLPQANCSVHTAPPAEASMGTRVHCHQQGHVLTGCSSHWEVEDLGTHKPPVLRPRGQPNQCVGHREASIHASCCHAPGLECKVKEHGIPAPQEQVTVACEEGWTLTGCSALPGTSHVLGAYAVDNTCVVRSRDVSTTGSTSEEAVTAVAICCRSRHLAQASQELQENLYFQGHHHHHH

Compound: O=C(NC1COC1)c1cnc(N[C@H]2CC[C@H](Nc3ccc(-n4cccc(C(F)(F)F)c4=O)cn3)C2)nn1 [Example 161, N-(Oxetan-3-yl)-3-(((1S,3S)-3-((2-oxo-3-(trifluoromethyl)-2H-[1,3′-bipyridin]-6′-yl)amino)cyclopentyl)amino)-1,2,4-triazine-6-carboxamide]
- IC50 [1]: > 10000 nM
- EC50 [2]: 100 nM
- IC50 [3]: 3.8 nM
- IC50 [4]: > 40100 nM

Compound: O=c1c(OC(F)F)cccn1-c1ccc(N[C@H]2CC[C@H](Nc3ncc(C4CC4)nn3)C2)nc1 [Example 165, 6′-(((1S,3S)-3-((6-Cyclopropyl-1,2,4-triazin-3-yl)amino)cyclopentyl)amino)-3-(difluoromethoxy)-2H-[1,3′-bipyridin]-2-one]
- IC50 [1]: 5100 nM
- EC50 [2]: 100 nM
- IC50 [3]: 1.3 nM
- IC50 [4]: 25500 nM

Compound: O=c1ccc(OC(F)F)cn1-c1ccc(N[C@H]2CC[C@H](Nc3ncc(C4CC4)nn3)C2)nc1 [Example 166, 6′-(((1S,3S)-3-((6-Cyclopropyl-1,2,4-triazin-3-yl)amino)cyclopentyl)amino)-5-(difluoromethoxy)-2H-[1,3′-bipyridin]-2-one]
- IC50 [1]: 2200 nM
- EC50 [2]: 300 nM
- IC50 [3]: 7.2 nM
- IC50 [4]: 38200 nM

Compound: COc1ccn(-c2ccc(N[C@H]3CC[C@H](Nc4ncc(C)nn4)C3)nc2)c(=O)c1 [Example 180, 4-Methoxy-6′-(((1S,3S)-3-((6-methyl-1,2,4-triazin-3-yl)amino)cyclopentyl)amino)-2H-[1,3′-bipyridin]-2-one]
- IC50 [1]: > 10000 nM
- EC50 [2]: 300 nM
- IC50 [3]: 6 nM
- IC50 [4]: > 40100 nM

Compound: Cc1cnc(N[C@H]2CC[C@H](Nc3ccc(-n4ccc(Cl)cc4=O)cn3)C2)nn1 [Example 182, 4-Chloro-6′-(((1S,3S)-3-((6-methyl-1,2,4-triazin-3-yl)amino)cyclopentyl)amino)-2H-[1,3′-bipyridin]-2-one]
- IC50 [1]: > 10000 nM
- EC50 [2]: 600 nM
- IC50 [3]: 9.4 nM
- IC50 [4]: > 40100 nM

Compound: Cc1cnc(N[C@H]2CC[C@H](Nc3ccc(-n4cc(OC(F)F)ccc4=O)cn3)C2)nn1 [Example 185, 5-(Difluoromethoxy)-6′-(((1S,3S)-3-((6-methyl-1,2,4-triazin-3-yl)amino)cyclopentyl)amino)-2H-[1,3′-bipyridin]-2-one]
- IC50 [1]: 2420 nM
- EC50 [2]: 200 nM
- IC50 [3]: 13 nM
- IC50 [4]: > 40100 nM

Compound: Cc1cnc(N[C@H]2CC[C@H](Nc3ccc(-n4cccc(-c5cn[nH]c5)c4=O)cn3)C2)nn1 [Example 199, 6′-(((1S,3S)-3-((6-Methyl-1,2,4-triazin-3-yl)amino)cyclopentyl)amino)-3-(1H-pyrazol-4-yl)-2H-[1,3′-bipyridin]-2-one]
- IC50 [1]: > 10000 nM
- EC50 [2]: 100 nM
- IC50 [3]: 2 nM
- IC50 [4]: > 40100 nM

Compound: Cc1cnc(N[C@H]2CC[C@H](Nc3ccc(-n4cccc(-c5c[nH]nn5)c4=O)cn3)C2)nn1 [Example 200, 6′-(((1S,3S)-3-((6-Methyl-1,2,4-triazin-3-yl)amino)cyclopentyl)amino)-3-(1H-1,2,3-triazol-4-yl)-2H-[1,3′-bipyridin]-2-one]
- IC50 [1]: > 10000 nM
- EC50 [2]: 100 nM
- IC50 [3]: 2.5 nM
- IC50 [4]: > 40100 nM

Compound: Cc1cnc(N[C@H]2CC[C@H](Nc3ccc(-n4cc(-c5cnn(C)c5)ccc4=O)cn3)C2)nn1 [Example 201, 6′-(((1S,3S)-3-((6-Methyl-1,2,4-triazin-3-yl)amino)cyclopentyl)amino)-5-(1-methyl-1H-pyrazol-4-yl)-2H-[1,3′-bipyridin]-2-one]
- IC50 [1]: 2380 nM
- EC50 [2]: 200 nM
- IC50 [3]: 8.6 nM
- IC50 [4]: > 40100 nM

Compound: Cc1cnc(N[C@H]2CC[C@H](Nc3ccc(-n4cc(-c5cn[nH]c5)ccc4=O)cn3)C2)nn1 [Example 202, 6′-(((1S,3S)-3-((6-Methyl-1,2,4-triazin-3-yl)amino)cyclopentyl)amino)-5-(1H-pyrazol-4-yl)-2H-[1,3′-bipyridin]-2-one]
- IC50 [1]: 7660 nM
- EC50 [2]: 100 nM
- IC50 [3]: 3.7 nM
- IC50 [4]: > 40100 nM

Compound: Cc1cnc(N[C@H]2CC[C@H](Nc3ccc(-n4cc(-c5c[nH]nn5)ccc4=O)cn3)C2)nn1 [Example 208, 6′-(((1S,3S)-3-((6-Methyl-1,2,4-triazin-3-yl)amino)cyclopentyl)amino)-5-(1H-1,2,3-triazol-4-yl)-2H-[1,3′-bipyridin]-2-one]
- IC50 [1]: 1710 nM
- EC50 [2]: 300 nM
- IC50 [3]: 6.5 nM
- IC50 [4]: > 40100 nM

Compound: Cc1cnc(N[C@H]2CC[C@H](Nc3ccc(-n4c(=O)n(C)c5cc(C#N)ccc54)cn3)C2)nn1 [Example 211, 3-Methyl-1-(6-(((1S,3S)-3-((6-methyl-1,2,4-triazin-3-yl)amino)cyclopentyl)amino)pyridin-3-yl)-2-oxo-2,3-dihydro-1H-benzo[d]imidazole-5-carbonitrile]
- IC50 [1]: > 10000 nM
- EC50 [2]: 100 nM
- IC50 [3]: 1.4 nM
- IC50 [4]: 16500 nM

Compound: Cc1cnc(N[C@H]2CC[C@H](Nc3ccc(-n4c(=O)n(C)c5ccc(C#N)nc54)cn3)C2)nn1 [Example 213, 1-Methyl-3-(6-(((1S,3S)-3-((6-methyl-1,2,4-triazin-3-yl)amino)cyclopentyl)amino)pyridin-3-yl)-2-oxo-2,3-dihydro-1H-imidazo[4,5-b]pyridine-5-carbonitrile]
- IC50 [1]: > 10000 nM
- EC50 [2]: 200 nM
- IC50 [3]: 1.6 nM
- IC50 [4]: > 40100 nM

Compound: Cc1cnc(N[C@H]2CC[C@H](Nc3ccc(-n4c(=O)n(C)c5cc(C#N)cnc54)cn3)C2)nn1 [Example 214, 1-Methyl-3-(6-(((1S,3S)-3-((6-methyl-1,2,4-triazin-3-yl)amino)cyclopentyl)amino)pyridin-3-yl)-2-oxo-2,3-dihydro-1H-imidazo[4,5-b]pyridine-6-carbonitrile]
- IC50 [1]: > 10000 nM
- EC50 [2]: 700 nM
- IC50 [3]: 3.4 nM
- IC50 [4]: > 40100 nM

Compound: COc1ccnn(-c2ccc(N[C@H]3CC[C@H](Nc4ncc(C)nn4)C3)nc2)c1=O [Example 220, 4-Methoxy-2-(6-(((1S,3S)-3-((6-methyl-1,2,4-triazin-3-yl)amino)cyclopentyl)amino)pyridin-3-yl)pyridazin-3(2H)-one]
- IC50 [1]: > 10000 nM
- EC50 [2]: 200 nM
- IC50 [3]: 1.7 nM
- IC50 [4]: > 200000 nM

Compound: Cc1cnc(N[C@H]2CC[C@H](Nc3ccc(-n4nccc(OC(F)F)c4=O)cn3)C2)nn1 [Example 281, 4-(Difluoromethoxy)-2-(6-(((1S,3S)-3-((6-methyl-1,2,4-triazin-3-yl)amino)cyclopentyl)amino)pyridin-3-yl)pyridazin-3(2H)-one]
- IC50 [1]: > 10000 nM
- EC50 [2]: 300 nM
- IC50 [3]: 2.5 nM
- IC50 [4]: > 40100 nM

— patent US20240228469A1, “PCSK9 INHIBITORS AND METHODS OF USE THEREOF” (AstraZeneca AB, priority 2022, published 2024)
